Source: article PMC12112332, “Characterization of Novel and Known Activators of Cannabinoid Receptor Subtype 2 Reveals Mixed Pharmacology That Differentiates Mycophenolate Mofetil and GW-842,166X from MDA7” (International Journal of Molecular Sciences, 2025)
Where two headings read alike, the source gives them in different places.

Tests used:
rCB2 = molecular target: T1, rCB2 (Rattus norvegicus, UniProt Q9QZN9); test: Thallium flux assay in HEK/GIRK cells expressing rCB2; format: cell-based; conditions: for rCB2 GIRK (−) 2-AG % Max ± SEM / rCB2 GIRK (+) 2-AG % Max ± SEM: % of maximal 2-AG response
T1 construct: expressed in transfected cells; host or cells: HEK293 cells stably co-expressing GIRK1/2 channels
T1 sequence (Q9QZN9 1-360): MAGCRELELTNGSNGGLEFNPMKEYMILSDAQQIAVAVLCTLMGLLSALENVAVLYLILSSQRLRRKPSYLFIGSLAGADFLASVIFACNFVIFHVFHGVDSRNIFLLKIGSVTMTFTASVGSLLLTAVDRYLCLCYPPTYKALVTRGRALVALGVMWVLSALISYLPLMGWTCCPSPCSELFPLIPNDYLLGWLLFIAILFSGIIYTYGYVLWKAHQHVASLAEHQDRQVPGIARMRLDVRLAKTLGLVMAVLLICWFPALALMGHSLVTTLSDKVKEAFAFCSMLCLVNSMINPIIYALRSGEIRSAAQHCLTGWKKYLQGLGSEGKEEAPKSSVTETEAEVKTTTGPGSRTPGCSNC
Procedure: To identify new compounds capable of potentiating CB2 responses to the endogenous agonist 2-AG, we used a thallium flux assay measuring the ability of ligands to enhance 2-AG-induced responses in cells expressing rCB2 and GIRK1/2 channels to screen a collection of FDA-approved drugs. Compounds were added to cells loaded with thallium-sensitive dye and allowed to incubate for 2.3 min, whereupon a submaximal concentration (EC20) of 2-AG was added to the cells and the signal was monitored for an additional 2.7 min. The ~1000 compound collection was initially screened at a single point using a 10 µM concentration of the compound. Test compounds that potentiated the cellular response to 2-AG by a minimum of 3 standard deviations above the average EC20 agonist response were selected as potential PAM hits. A total of 63 putative PAMs were identified; of these, 13 were confirmed as active with concentration-dependent activity at the rCB2 receptor.
The cell lines used in this manuscript were generated in-house. Their preparation is described in detail in Qi et al.. Cells were used for 10 passages for experiments and day-to-day signals in both the CB2 and CB1 lines were stable across this passage number. Human Embryonic Kidney (HEK) 293 cells stably expressing rCB2 and the G protein Gqi9 were maintained in Dulbecco’s modified Eagle media (DMEM) containing 10% FBS, 1× antibiotic/antimycotic, 20 mM HEPES, 1 mM sodium pyruvate, 2 mM L-glutamine, 1× non-essential amino acids, 700 µg/mL G418 sulfate, and 0.6 µg/mL puromycin. HEK cells stably expressing rCB2 or rCB1 and the G protein inwardly rectifying potassium channel (GIRK) were maintained in DMEM/F12 containing 10% FBS, 1× antibiotic/antimycotic, 20 mM HEPES, 1 mM sodium pyruvate, 2 mM L-glutamine, 1× non-essential amino acids, 700 µg/mL G418 sulfate, and 0.6 µg/mL puromycin. Cells were monitored by periodic PCR detection using the LookOut Mycoplasma PCR Detection Kit (Sigma-Aldrich, St Louis, MO, USA) to eliminate potential mycoplasma infection. Reagents were obtained from Invitrogen (Waltham, MA, USA) unless otherwise noted.
Thallium flux assays were performed as previously described in Niswender et al., 2008 [31]. HEK/GIRK cells stably expressing rCB1 or rCB2 (15,000 cells/20 µL/well) were seeded in 384-well, poly-D-lysine coated assay plates (Corning BioCoat®) (Corning Inc., Corning, NY, USA) and incubated overnight at 37 °C in the presence of 5% CO2. The next day, the medium was removed and replaced with 20 μL of 1.2 µM thallium-sensitive dye Thallos-AM (ION biosciences, San Marcos, TX, USA), prepared as a DMSO stock solution mixed in a 1:1 ratio with 10% (w/v) pluronic acid F-127, and diluted in assay buffer (Hank’s balanced salt solution, 20 mM HEPES, pH 7.4). Following 1 h at room temperature, the dye solution was removed and replaced with 20 µL assay buffer. For screening of the FDA-Approved Drug Collection, 10 mM DMSO stocks of library compounds were transferred to daughter plates using an Echo acoustic plate reformatter (Labcyte, Sunnyvale, CA, USA) and diluted in assay buffer to a 2× final concentration. For concentration–response curve experiments, compounds were serially diluted 1:3 into 10-point concentration–response curves in DMSO, transferred to daughter plates using the Echo or Bravo Automated Liquid Handling Platform (Agilent Technologies, Santa Clara, CA, USA), and diluted in assay buffer to a 2× final concentration. Thallium flux was measured using the Hamamatsu FDSS/μCELL Kinetic Plate Imager (Bridgewater, NJ, USA). After the establishment of a fluorescence baseline (excitation, 480 ± 20 nm; emission, 540 ± 30 nm), 20 µL (2×) of test compound was added to the cells at 1 s and the response was measured. […]

rat CB2 = molecular target: T2, rat CB2 (Rattus norvegicus, UniProt Q9QZN9); test: β-arrestin recruitment assay (PathHunter, Eurofins) in rat CB2 cells; format: cell-based; parameters: expressed in transfected cells; conditions: for rCB2 β-Arrestin (−) CP55,940 % Max / rCB2 β-Arrestin (+) CP55,940 % Max: % of maximal CP55,940 response
T2 sequence (Q9QZN9 1-360): T1 sequence (Q9QZN9 1-360)
Procedure: Assays were performed by Eurofins Discovery (Freemont, CA, USA). PathHunter cell lines were expanded from freezer stocks according to standard procedures. Rat CB2 cells were seeded in a total volume of 20 μL into white-walled, 384-well microplates and incubated at 37 °C for the appropriate time prior to testing. For agonist determination, cells were incubated with the sample to induce a response. Intermediate dilution of sample stocks was performed to generate a 5× sample in assay buffer. A total of 5 μL of 5× sample was added to the cells and incubated at 37 °C or room temperature for at least 120 min. The final assay vehicle concentration was 1%. For allosteric modulator determination, cells were pre-incubated with the sample followed by agonist challenge at the EC20. Intermediate dilution of sample stocks was performed to generate a 5× sample in assay buffer. A total of 5 μL of 5× sample was added to cells and incubated at 37 °C or room temperature for 15 min. Vehicle concentration was 1%. Then, 5 μL of 6× EC20 agonist in assay buffer was added to the cells and incubated at 37 °C or room temperature for at least 120 min.
The assay signal was generated through a single addition of 15 μL (50% v/v) of PathHunter Detection reagent cocktail, followed by a one-hour incubation at room temperature. Microplates were read following signal generation with a PerkinElmer Envision^TM instrument for chemiluminescent signal detection.
Compound activity was analyzed using the CBIS data analysis suite (ChemInnovation). For agonist mode assays, percentage activity was calculated using the following formula: % Activity = 100% × (mean RLU of test sample − mean RLU of vehicle control)/(mean MAX control ligand − mean RLU of vehicle control).
For positive allosteric mode assays, percentage modulation was calculated using the following formula: % Modulation = 100% × ((mean RLU of test sample − mean RLU of EC20 control)/(mean RLU of MAX control ligand − mean RLU of EC20 control)).

[1] = rCB2 GIRK (−) 2-AG pEC50 ± SEM, thallium flux, absence of 2-AG
[2] = thallium flux, presence of EC20 2-AG
[3] = rCB2 β-Arrestin (+) CP55,940 pEC50, presence of EC20 CP55,940
[4] = rCB2 β-Arrestin (−) CP55,940 pEC50, absence of CP55,940

EC50 (rCB2; thallium flux rCB2, vehicle instead of AM630, read-out: pEC50 of mycophenolate mofetil CRC, vehicle (converted)) | EC50 (rCB2; thallium flux, absence of 2-AG, read-out: rCB2 GIRK EC50 in absence of 2-AG) | EC50 (rCB2; thallium flux, presence of EC20 2-AG, read-out: rCB2 GIRK EC50 in presence of 2-AG) | EC50 (rat CB2; absence of CP55,940, read-out: rCB2 β-Arrestin (−) CP55,940 pEC50 (converted)) | EC50 (rat CB2; presence of EC20 CP55,940, read-out: rCB2 β-Arrestin (+) CP55,940 pEC50 (converted)) | Structure (SMILES) | EC50 (rCB2; [1]) | EC50 (rCB2; rCB2 GIRK EC50 in absence of 2-AG, thallium flux, absence of 2-AG) | EC50 (rCB2; rCB2 GIRK EC50 in presence of 2-AG, thallium flux, presence of EC20 2-AG) | rCB2 GIRK (−) 2-AG % Max ± SEM (rCB2; thallium flux, absence of 2-AG) | rCB2 GIRK (+) 2-AG % Max ± SEM (rCB2; [2]) | rCB2 β-Arrestin (−) CP55,940 % Max (rat CB2; absence of CP55,940) | rCB2 β-Arrestin (+) CP55,940 % Max (rat CB2; presence of EC20 CP55,940) | EC50 (rat CB2; [3]) | EC50 (rat CB2; [4]) | EC50 (rCB2; rCB2 GIRK (+) 2-AG pEC50 ± SEM, thallium flux, presence of EC20 2-AG) | rCB2 GIRK (−) 2-AG pEC50 ± SEM (rCB2; thallium flux, absence of 2-AG) | rCB2 GIRK (+) 2-AG pEC50 ± SEM (rCB2; [2])
 |  |  |  |  | O=C(NCC1CCOCC1)c1cnc(Nc2ccc(Cl)cc2Cl)nc1C(F)(F)F [GW-842,166X, 2-(2,4-dichloroanilino)-N-(oxan-4-ylmethyl)-4-(trifluoromethyl)pyrimidine-5-carboxamide] | 0.055 µM | 0.056 µM | 0.074 µM | 89 ± 5% | 82 ± 4% | 97% | 120% | 0.631 µM | 0.162 µM |  |  | 
 |  |  |  |  | CC1(Cc2ccccc2)COc2cc(C(=O)N3CCCCC3)ccc21 (centres unmarked) [MDA7, 1-[(3-benzyl-3-methyl-2,3-dihydro-1-benzofuran-6-yl)carbonyl]piperidine] | > 10 µM |  |  | −64 ± 13% | −65 ± 15% | 38% | 40% | > 10 µM | 0.0479 µM | > 10 µM | < 5.0 | < 5.0
0.339 µM | 0.154 µM | 0.228 µM | 1.15 µM | 1.35 µM | COc1c(C)c2c(c(O)c1C/C=C(\C)CCC(=O)OCCN1CCOCC1)C(=O)OC2 [Mycophenolate mofetil] |  |  |  | 71 ± 5% | 74 ± 2% | 114% | 113% |  |  |  |  | 
 |  |  |  |  | COc1c(C)c2c(c(O)c1C/C=C(\C)CCC(=O)O)C(=O)OC2 [Mycophenolic acid] |  |  |  |  |  |  |  |  |  |  |  | Inactive
